Experimental data from paper PMC11728683, “Colon-Targeted Poly(ADP-ribose) Polymerase Inhibitors Synergize Therapeutic Effects of Mesalazine Against Rat Colitis Induced by 2,4-Dinitrobenzenesulfonic Acid” (Pharmaceutics, 2024).
“Also recorded” adds a separate entry of the source.

Columns and labels:
[1] = Distribution coefficient (log D6.8), pH 6.8 isotonic phosphate buffer/n-octanol; type: physicochemical; conditions: n-octanol/pH 6.8 isotonic phosphate buffer; 1-octanol/isotonic phosphate buffer (pH 6.8)
Description: Distribution coefficients (log D6.8) of the PARP inhibitors and their derivatives were measured using a pH 6.8 isotonic phosphate buffer/n-octanol system, as described in a previous paper.

PARP = test system: PARP; design: method as in PMID 30196390, PMID 17235412; conditions: cited from earlier work
[2] = test system: murine macrophage RAW264.7 cells challenged with LPS; assay: LPS-mediated induction of iNOS and COX-2 in RAW264.7 cells (Western blot); type: cell-based; conditions: pretreated 1 h with 5-ASA (20 mM), 3-AB (1 mM), 5-AIQ (10 μM), then LPS 24 h
Description: Tissue samples (0.2 g/mL) were homogenized in pre-chilled radioimmunoprecipitation assay buffer (50 mM Tris-HCl [pH 7.4], 1 mM EDTA, 0.7% Na deoxycholate, 1% NP-40, 150 mM NaCl, 0.3 μM aprotinin, 1 μM pepstatin, and 1 mM phenylmethylsulfonyl fluoride). The homogenates were centrifuged at 10,000× g at 4 °C for 10 min, followed by agitation on ice for 30 min. Whole and nuclear cell lysates were prepared as described previously. The protein concentrations in the lysates were determined using bicinchoninic acid (Thermo Fisher Scientific, Waltham, MA, USA) according to the manufacturer’s instructions. Cell and tissue lysates were separated by SDS-PAGE on 10% and 7.5% gels. Nrf2, HO-1, cyclooxygenase-2 (COX-2), and inducible nitric oxide synthase (iNOS) proteins were detected using the following antibodies: anti-Nrf2 (sc-365949, Santa Cruz Biotechnology, Dallas, TX, USA), anti-HO-1 (sc-136961, Santa Cruz Biotechnology), anti-COX-2 (sc-365374, Santa Cruz Biotechnology), anti-iNOS (NOS-2) antibody (sc-7271, Santa Cruz Biotechnology), and secondary antibodies corresponding to the primary antibodies (Santa Cruz Biotechnology). Protein bands were visualized using SuperSignal chemiluminescence substrate (Thermo Fisher Scientific). α-Tubulin were detected using antibodies specific to each protein (Santa Cruz Biotechnology) as loading controls. […]

[3] = Incubation in the cecal contents of rats (colonic activation); type: in vitro ADME, rat; conditions: 1 mM, 10% cecal contents, under nitrogen
Description: Male Sprague–Dawley rats (250–260 g) were euthanized using CO2 gas before a midline incision was made. The contents of the intestinal tract were collected from the small intestine and cecum obtained from each of three rats and were suspended in pH 6.8 isotonic phosphate buffer to prepare a 20% (w/v) suspension. To maintain anaerobic conditions in the cecum, the cecal contents were collected under a N2 atmosphere in an atmospheric bag (AtmosBag, Sigma, St. Louis, MO, USA). Derivatives of PARP inhibitors (2 mM) dissolved in pH 6.8 isotonic phosphate buffer (5 mL) were mixed with the cecal and small intestinal suspensions (5 mL) and then incubated at 37 °C. The cecal contents were incubated in nitrogen. At predetermined time intervals, a 0.5 mL portion of the mixture was transferred to a microtube and centrifuged at 10,000× g at 4 °C for 10 min. The supernatants (0.1 mL) were mixed with MeOH (0.9 mL), followed by centrifugation at 10,000× g at 4 °C for 7 min. The supernatants were filtered through a membrane filter (0.45 μm), and the concentrations of PARP inhibitors in the filtrates (20 μL) were analyzed using HPLC.

Caco-2 cell monolayer = assay: Cell permeability via Caco-2 cell monolayer; type: in vitro ADME; conditions: 500 µM apical, concentration determined in basolateral compartment
Description: Caco-2 cells (4 × 10^5 per insert) were seeded and grown in Transwell 6-well inserts with a pore size of 0.4 μm (SPL Inc., Houston, TX, USA) until the transepithelial electrical resistance value (EMD Millipore, Billerica, MA, USA) reached 2000 Ω.cm^2. After removing the culture medium (DMEM) containing 1% penicillin/streptomycin from the basolateral and apical (insert) compartments, the apical compartment was filled with DMEM without phenol red (2 mL) containing PARP inhibitors and their derivatives (500 μM), whereas the basolateral compartment was filled with DMEM without phenol red (3 mL). At appropriate time intervals, the drug concentration in the basolateral compartment was determined by HPLC.

[4] = Drug concentration in the cecum after oral administration; type: in vivo, rat; conditions: rats
Description: Male Sprague–Dawley rats were fasted for 24 h but had access to water. 5-AIQ (10 mg/kg), AQSA-Glu (equivalent to 10 mg/kg 5-AIQ), 3-AB (17 mg/kg), and ABSA (equivalent to 17 mg/kg 3-AB) in PBS (1.0 mL) were administered to the rats by oral gavage. Blood samples were collected via cardiac puncture at 2, 4, and 8 h after the oral gavage. The blood samples were centrifuged at 10,000× g at 4 °C for 10 min to obtain the plasma (0.3 mL). The plasma (0.1 mL) was transferred to a centrifuge tube and mixed with methanol (0.9 mL). The supernatants were filtered through a membrane filter (0.45 μm), and then the filtrate (20.0 μL) was subjected to HPLC analysis. To determine drug concentrations in the cecum, cecal contents were collected at 2, 4, and 8 h after oral gavage and mixed with pH 6.8 isotonic phosphate buffer to make a 10% suspension, which was subjected to centrifugation at 10,000× g for 10 min at 4 °C. The supernatants (0.1 mL) were transferred to fresh microtubes, followed by the addition of MeOH (0.9 mL). After centrifugation at 10,000× g at 4 °C for 7 min and subsequent filtration through a membrane filter (0.45 μm), the concentrations of PARP inhibitors in the filtrates (20 μL) were analyzed using HPLC.

DNBS-induced rat colitis = DNBS-induced rat colitis model (anticolitic effects); type: in vivo
Description: DNBS-induced colitis was produced in rats as previously described. Two independent animal experiments were performed to evaluate the anticolitic effects of the drugs. For the first experiment, the rats were divided into the following five treatment groups (n = 5 per group): group 1 (normal group), oral gavage of 1.0 mL of PBS; group 2 (colitis group), oral gavage of 1.0 mL of PBS; group 3 (5-AIQ-treated colitis group), oral gavage of 5-AIQ (5 mg/kg) in 1.0 mL of PBS; group 4 [AQSA-Glu-treated colitis group (L)], oral gavage of AQSA-Glu (7.5 mg/kg, equivalent to 2.5 mg/kg of 5-AIQ) in 1.0 mL of PBS; and group 5 [AQSA-Glu-treated colitis group (H)], oral gavage of AQSA-Glu (15 mg/kg, equivalent to 5 mg/kg of 5-AIQ) in 1.0 mL of PBS. For the second experiment, the rats were divided into the following six treatment groups (n = 5 per group): group 1 (normal group), oral gavage of 1.0 mL of PBS; group 2 (colitis group), oral gavage of 1.0 mL of PBS; group 3 (SSZ-treated colitis group), oral gavage of SSZ (50 mg/kg) in 1.0 mL of PBS; group 4 (AQSA-Glu-treated colitis group), oral gavage of AQSA-Glu (15 mg/kg) in 1.0 mL of PBS; group 5 (mixture of AQSA-Glu + OSZ-treated colitis group), oral gavage of mixture of AQSA-Glu (15 mg/kg) and OSZ (19 mg/kg, half-equimolar to 50 mg/kg of SSZ) in 1.0 mL of PBS; and group 6 (ABSA-treated colitis group), oral gavage of ABSA (36 mg/kg, equivalent to 50 mg/kg of SSZ) in 1.0 mL of PBS. Three days after the induction of inflammation, each drug was orally administered to rats once daily, and the anticolitic effects were assessed 24 h after the sixth medication. The animal experiment scheme is shown in Supplementary Data S1. The colonic damage score was calculated using a scoring system modified from previously reported criteria. The modified scoring system is shown in Supplementary Data S2. Four independent observers who were blinded to the treatment conditions scored colonic damage according to the scoring system. Myeloperoxidase (MPO) activity in the distal colon (4 cm) was measured as described previously.
Tissue samples (0.2 g/mL) were homogenized in pre-chilled radioimmunoprecipitation assay buffer (50 mM Tris-HCl [pH 7.4], 1 mM EDTA, 0.7% Na deoxycholate, 1% NP-40, 150 mM NaCl, 0.3 μM aprotinin, 1 μM pepstatin, and 1 mM phenylmethylsulfonyl fluoride). The homogenates were centrifuged at 10,000× g at 4 °C for 10 min, followed by agitation on ice for 30 min. Whole and nuclear cell lysates were prepared as described previously. The protein concentrations in the lysates were determined using bicinchoninic acid (Thermo Fisher Scientific, Waltham, MA, USA) according to the manufacturer’s instructions.
Cell and tissue lysates were separated by SDS-PAGE on 10% and 7.5% gels. Nrf2, HO-1, cyclooxygenase-2 (COX-2), and inducible nitric oxide synthase (iNOS) proteins were detected using the following antibodies: anti-Nrf2 (sc-365949, Santa Cruz Biotechnology, Dallas, TX, USA), anti-HO-1 (sc-136961, Santa Cruz Biotechnology), anti-COX-2 (sc-365374, Santa Cruz Biotechnology), anti-iNOS (NOS-2) antibody (sc-7271, Santa Cruz Biotechnology), and secondary antibodies corresponding to the primary antibodies (Santa Cruz Biotechnology). Protein bands were visualized using SuperSignal chemiluminescence substrate (Thermo Fisher Scientific). α-Tubulin were detected using antibodies specific to each protein (Santa Cruz Biotechnology) as loading controls. Western blot images were quantified using Image Lab software (version 5.2 build 14; Bio-Rad, Hercules, CA, USA). The means of the quantified values are presented under each Western blot (n = 3 for cell experiments and n = 5 for animal experiments).
The levels of the inflammatory cytokine-induced neutrophil chemoattractant-3 (CINC-3) in the inflamed distal colon were determined using a CINC-3 ELISA kit (R&D Systems, Minneapolis, MN, USA). […]

[5] = design: method as in PMID 31743034; conditions: SSZ at an effective dose; cited from earlier work
[6] = second experiment: SSZ 50 mg/kg, AQSA-Glu 15 mg/kg, AQSA-Glu 15 mg/kg + OSZ 19 mg/kg, ABSA 36 mg/kg, oral once per day, six treatments

Question: What does the source list for `NC(=O)c1cccc(N)c1` [3-AB, 3-aminobenzamide, reference compound]?
Answer: logD [1]: 0.33; concentrations eliciting significant PARP inhibition (PARP): millimolar

Question: For `Nc1cccc2cnccc12` [5-AIQ, 5-aminoisoquinoline, reference compound], which logD [1] is on record?
Answer: The logD was 3.16.

Question: What about the “concentrations eliciting significant PARP inhibition” value (PARP) of the same compound?
Answer: The value was “micromolar”.

Question: Which “levels of iNOS and COX-2 proteins” value [2] does the source give for `Nc1ccc(O)c(C(=O)O)c1` [5-ASA, 5-aminosalicylic acid] here?
Answer: The value was “reduced the levels of iNOS and COX-2 proteins”.

Question: Which results are given for `NC(=O)c1cccc(N=Nc2ccc(O)c(C(=O)O)c2)c1` [ABSA, 5-[(3-carbamoylphenyl)diazenyl]-2-hydroxybenzoic acid]?
Answer: logD [1]: -1.07; conversion rate in cecal contents [3]: slightly higher than that of the derivatives of 5-AIQ; transport via the Caco-2 cell monolayer (cell permeability) (Caco-2 cell monolayer): less cell-permeable than 3-AB; amount of 3-AB delivered to the cecum ([4]; ABSA 36 mg/kg (equivalent to 17 mg/kg of 3-AB) vs 3-AB 17 mg/kg, 2, 4, 8 h): much greater amount; amount and temporal pattern of 5-ASA accumulation in the cecum ([4]; ABSA 36 mg/kg vs equimolar SSZ 50 mg/kg, 2, 4, 8 h): comparable; effectiveness against rat colitis (anticolitic effects) (DNBS-induced rat colitis; second experiment, same doses): more effective against rat colitis than SSZ and AQSA-Glu; colonic damage and mucosal recovery (DNBS-induced rat colitis; [6]): greater effectiveness in healing colonic injury, including mucosa, than the other single-treatment groups; also recorded: as effective against colonic damage as the mixture; inflammatory indices: MPO activity, CINC-3, iNOS and COX-2 in inflamed colon (DNBS-induced rat colitis; [6]): greater; also recorded: suppressed to a greater extent by ABSA than by SSZ or AQSA

Question: For `O=C(O)c1cc(N=Nc2cccc3cnccc23)ccc1O` [AQSA, 2-hydroxy-5-(isoquinolin-5-yldiazenyl)benzoic acid], which logD [1] is on record?
Answer: The logD was 0.31.

Question: For `O=C(O)C[C@H](NC(=O)c1cc(/N=N/c2cccc3cnccc23)ccc1O)C(=O)O` [AQSA-Asp], which logD [1] is on record?
Answer: Its logD is -1.77.

Question: Which logD [1] does the source give for `O=C(O)CC[C@H](NC(=O)c1cc(/N=N/c2cccc3cnccc23)ccc1O)C(=O)O` [AQSA-Glu] here?
Answer: The logD was -1.83.

Question: And the “amount of 5-AIQ delivered to the cecum” value ([4]; AQSA-Glu 29.3 mg/kg (equivalent to 10 mg/kg of 5-AIQ) vs 5-AIQ 10.0 mg/kg, 2, 4, 8 h)?
Answer: Its value is “much greater amount”.

Question: And the “mucosal recovery (H&E staining of inflamed distal colon)” value (DNBS-induced rat colitis; first experiment, oral once per day for 6 days)?
Answer: Its value is “greater mucosal recovery”.

Question: And the “colonic damage (colonic damage score)” value (DNBS-induced rat colitis; first experiment: AQSA-Glu 7.5 and 15 mg/kg (equivalent to 2.5 and 5 mg/kg of 5-AIQ) vs 5-AIQ 5 mg/kg, oral once per day for 6 days)?
Answer: The value was “substantially improved colonic damage in a dose-dependent manner and were more effective in ameliorating colonic damage than 5-AIQ”.

Question: What about the “MPO activity and proinflammatory mediators (CINC-3, iNOS, COX-2) in inflamed distal colon” value (DNBS-induced rat colitis; first experiment: AQSA-Glu low and high doses vs 5-AIQ 5 mg/kg, oral once per day for 6 days) of the same compound?
Answer: The value was “more effective in suppressing MPO activity and reducing proinflammatory mediators in the inflamed distal colon than 5-AIQ”.

Question: What about the “effectiveness against rat colitis” value (DNBS-induced rat colitis; first experiment: AQSA-Glu low dose (2.5 mg/kg as 5-AIQ) vs 5-AIQ (5 mg/kg)) of the same compound?
Answer: The value was “more effective against rat colitis than 5-AIQ”.

Question: With `O=C(O)c1cc(/N=N/c2ccc(S(=O)(=O)Nc3ccccn3)cc2)ccc1O` [SSZ, Sulfasalazine] as the compound, how does the “colonic concentrations of 5-ASA after oral administration” value [5] read?
Answer: Its value is “millimolar levels”.
